For this data set, the system named is GENE-TOX genotoxicity assays, various organisms and cells. Kind of data set: GENE-TOX mutagenicity studies. Conditions: for call: Assay Type: In vivo carcinogenicity studies.
Setting [1] is: Species/Cell Type: Chinese hamster lung (V79) cells, Assay Type: Forward gene mutation at the HPRT or ouabain locus, Assay Code: V79+, Evaluation Type: Evaluation A (Pre-1980).
Where [2] appears, read: Species/Cell Type: Drosophila melanogaster, Assay Type: Sex-linked recessive lethal gene mutation, Assay Code: SRL+, Evaluation Type: Evaluation A (Pre-1980).
Setting [3] is: Species/Cell Type: Neurospora crassa, Assay Type: Forward gene mutation, Assay Code: NEF+, Evaluation Type: Evaluation A (Pre-1980).
Where [4] appears, read: Species/Cell Type: Nonhuman, Assay Code: CCG+L, Evaluation Type: Evaluation A (Pre-1980).
The mark [5] stands for this setting: Species/Cell Type: Salmonella typhimurium (one or more of the five standard strains: TA98, TA100, TA1535, TA1537, and TA1538), Assay Type: Histidine reverse gene mutation, Ames assay, Assay Code: SAL+, Evaluation Type: Evaluation A (Pre-1980).
[6] abbreviates: Species/Cell Type: Human diploid fibroblasts, Assay Type: Unscheduled DNA synthesis (UDS) in vitro, DNA effects, Assay Code: UDH-, Evaluation Type: Evaluation A (Pre-1980).
Where [7] appears, read: Species/Cell Type: Salmonella typhimurium (one or more of the five standard strains: TA98, TA100, TA1535, TA1537, and TA1538), Assay Type: Histidine reverse gene mutation, Ames assay, Assay Code: SAL+*, Activation: With metabolic activation, Evaluation Type: Evaluation A (Pre-1980).
Where [8] appears, read: Species/Cell Type: Nonhuman, Assay Type: Sister-chromatid exchange (SCE) in vitro, Assay Code: SC2+D, Dose Response: With dose response, Evaluation Type: Evaluation B (Post-1980).
[9] abbreviates: Species/Cell Type: Salmonella typhimurium (one or more of the five standard strains: TA98, TA100, TA1535, TA1537, and TA1538), Assay Type: Histidine reverse gene mutation, Ames assay, Assay Code: SALT, Evaluation Type: Evaluation A (Pre-1980).
The mark [10] stands for this setting: Species/Cell Type: Bacillus subtilis (H17 vs M45), Assay Type: Rec-assay, spot test, DNA effects (bacterial DNA repair), Assay Code: REWT, Evaluation Type: Evaluation A (Pre-1980).

Active and inactive are the calls of the source. How the calls were made is not given here.

As for `CCN(CCCl)CCCNc1c2ccc(Cl)cc2nc2ccc(OC)cc12`, the mutagenic call reads like this: under setting [1], “active; positive”; (Species/Cell Type: Chinese hamster ovary (CHO) cells, Assay Type: Forward gene mutation at the HPRT locus, Assay Code: CHO+D, Dose Response: With dose response, Evaluation Type: Evaluation A (Pre-1980)) “active; positive”; under setting [2], “active; positive”; under setting [3], “active; positive”; (Species/Cell Type: Neurospora crassa, Assay Type: Reverse gene mutation, Assay Code: NER+, Evaluation Type: Evaluation A (Pre-1980)) “active; positive”; (Species/Cell Type: Rodents, Sex: Male, Assay Type: Dominant lethal test, Assay Code: DLTT, Evaluation Type: Evaluation A (Pre-1980)) “no conclusion”. For the same compound, the mutagenic call (Species/Cell Type: Saccharomyces cerevisiae, Assay Type: Forward gene mutation, Assay Code: YEF+, Evaluation Type: Evaluation A (Pre-1980)) is “active; positive”; the mutagenic call (Species/Cell Type: Saccharomyces cerevisiae, Assay Type: Mitotic recombination or gene conversion, Assay Code: YEC+, Evaluation Type: Evaluation A (Pre-1980)) was “active; positive”; the mutagenic call (Species/Cell Type: Saccharomyces cerevisiae, Assay Type: Mitotic recombination or gene conversion, Assay Code: YEH+, Evaluation Type: Evaluation A (Pre-1980)) is “active; positive”; the mutagenic call (Species/Cell Type: Saccharomyces cerevisiae, Assay Type: Reverse gene mutation, Assay Code: YER+, Evaluation Type: Evaluation A (Pre-1980)) is “active; positive”; the mutagenic call under setting [5] is “active; positive”; the mutagenic call (Species/Cell Type: Vicia faba, Assay Type: Chromosome aberrations, Assay Code: VIC+D, Dose Response: With dose response, Evaluation Type: Evaluation A (Pre-1980)) is “active; positive”. For the same compound, under setting [4], the call was “active; positive”.
On to `Cc1ncc([N+](=O)[O-])n1CC(=O)O`, for which the mutagenic call reads like this: (Species/Cell Type: Human lymphocytes, Assay Type: Sister-chromatid exchange (SCE) in vitro, Assay Code: SCLT, Evaluation Type: Evaluation B (Post-1980)) “no conclusion”; (Species/Cell Type: Human, Assay Type: Sister-chromatid exchange (SCE) in vitro, Assay Code: SC1T, Evaluation Type: Evaluation B (Post-1980)) “no conclusion”.
In the case of `CC(=O)Nc1ccc(/C=C/c2ccccc2)cc1`, the mutagenic call runs as follows: under setting [6], “inactive; negative”; under setting [7], “active; positive”.
`O=c1[nH]cnc2nc[nH]c12`: the mutagenic call by setting is: (Species/Cell Type: Allium cepa, Assay Type: Chromosome aberrations, Assay Code: ALC-, Evaluation Type: Evaluation A (Pre-1980)) “inactive; negative”; (Species/Cell Type: Arabidopsis species, Assay Type: Gene mutation, Assay Code: ARM-, Evaluation Type: Evaluation A (Pre-1980)) “inactive; negative”; (Species/Cell Type: Nonhuman, Assay Type: Sister-chromatid exchange (SCE) in vitro, Assay Code: SC2T, Evaluation Type: Evaluation B (Post-1980)) “no conclusion”.
As to `[N-]=[N+]=CC(=O)NCC(N)=O`, the mutagenic call reads like this: under setting [8], “active; positive”; under setting [5], “active; positive”.
Regarding `CC(=O)Nc1ccc(C(O)C(O)c2ccccc2)cc1` (stereo unspecified), the mutagenic call under setting [9] is recorded as “no conclusion”.
With `CC(CO)OS(C)(=O)=O` (stereo unspecified), the mutagenic call (Species/Cell Type: Hordeum vulgare (barley), Assay Type: Chromosome aberrations, Assay Code: HOC+D, Dose Response: With dose response, Evaluation Type: Evaluation A (Pre-1980)) is “active; positive”.
As for `[Cl][Nb]([Cl])([Cl])([Cl])[Cl]`, the mutagenic call (Species/Cell Type: Bacillus subtilis (H17 vs M45), Assay Type: Rec-assay, spot test, DNA effects (bacterial DNA repair), Assay Code: REW-, Evaluation Type: Evaluation A (Pre-1980)) is “inactive; negative”.
With `NC(=O)OCCO`, the mutagenic call is, setting by setting: (Species/Cell Type: Nonhuman, Assay Type: Sister-chromatid exchange (SCE) in vitro, Assay Code: SC2+*, Activation: With metabolic activation, Evaluation Type: Evaluation B (Post-1980)) “active; positive”; (Species/Cell Type: Nonhuman, Assay Type: Sister-chromatid exchange (SCE) in vivo, Assay Code: SC3T, Evaluation Type: Evaluation B (Post-1980)) “no conclusion”.
`c1cc2cccc3c4cccc5cccc(c(c1)c23)c54`: the mutagenic call (Species/Cell Type: Chinese hamster lung (V79) cells, Assay Type: Forward gene mutation, host-mediated assay, Assay Code: HMG-, Evaluation Type: Evaluation A (Pre-1980)) was “inactive; negative” and the mutagenic call (Species/Cell Type: Nonhuman, Assay Type: Sister-chromatid exchange (SCE) in vivo, Assay Code: SC3-, Evaluation Type: Evaluation A (Pre-1980)) was “inactive; negative”.
Turning to `O=C(O)c1c(Cl)c(Cl)c(Cl)c(Cl)c1-c1c2cc(Br)c(=O)c(Br)c-2oc2c(Br)c(O)c(Br)cc12`, the mutagenic call under setting [10] was “no conclusion”.
In the case of `C1C2OC2C2OC12` (stereo unspecified), under setting [3], the mutagenic call was “active; positive”.
On to `C[C@]12C=CC(=O)C=C1CC[C@@H]1[C@@H]2CC[C@@]2(C)[C@H]1CC[C@]2(C)O`, for which the mutagenic call (Species/Cell Type: Human, Sex: Male, Assay Type: Sperm morphology, Assay Code: SPH+, Evaluation Type: Evaluation A (Pre-1980)) was “active; positive”.
As for `CC(=O)C1COC(O)C1C` (stereo unspecified), under setting [8], the mutagenic call is “active; positive”.
On to `C=C[C@H]1CN2CC[C@H]1C[C@H]2[C@H](O)c1ccnc2ccc(OC)cc12`, for which the mutagenic call reads like this: (Species/Cell Type: Mammalian polychromatic erythrocytes, Assay Type: Micronucleus test, chromosome aberrations, Assay Code: MNT+U, Dose Response: Unconfirmed positive response, Evaluation Type: Evaluation B (Post-1980)) “active; positive”; (Species/Cell Type: Nonhuman, Assay Type: Sister-chromatid exchange (SCE) in vivo, Assay Code: SC3+D, Dose Response: With dose response, Evaluation Type: Evaluation B (Post-1980)) “active; positive”.
Take `COc1cc2c(c3oc(=O)c4c(c13)CCC4=O)[C@@H]1C[C@H](O)O[C@@H]1O2`: under setting [9], the mutagenic call was “no conclusion”.
With `O=C1OC(=O)c2ccccc21`, the call (Species/Cell Type: Nonhuman, Assay Code: CCG-, Evaluation Type: Evaluation A (Pre-1980)) is “inactive; negative”.
`C[CH2][Hg][Cl]`: the mutagenic call (Species/Cell Type: Mammalian polychromatic erythrocytes, Assay Type: Micronucleus test, chromosome aberrations, Assay Code: MNTT, Evaluation Type: Evaluation B (Post-1980)) was “no conclusion”.
As to `Cc1cccc2ccc3c4ccccc4ccc3c12`, the mutagenic call under setting [7] is “active; positive”.
For `c1ccc2c(c1)-c1cc3ccccc3cc1[C@H]1O[C@@H]21`, the mutagenic call under setting [1] is “active; positive”; the mutagenic call under setting [2] was “active; positive”; the mutagenic call (Species/Cell Type: Human diploid fibroblasts, Assay Type: Unscheduled DNA synthesis (UDS) in vitro, DNA effects, Assay Code: UDH+D, Dose Response: With dose response, Evaluation Type: Evaluation A (Pre-1980)) is “active; positive”; the mutagenic call (Species/Cell Type: Mouse prostate cells, Assay Type: Cell transformation, Assay Code: CTM+, Evaluation Type: Evaluation A (Pre-1980)) was “active; positive”; the mutagenic call (Species/Cell Type: Nonhuman, Assay Type: Sister-chromatid exchange (SCE) in vitro, Assay Code: SC2+, Evaluation Type: Evaluation B (Post-1980)) is “active; positive”; the mutagenic call under setting [5] was “active; positive”. For the setting “Species/Cell Type: Syrian hamster embryo (SHE) cells, Assay Type: Cell transformation, clonal assay, Assay Code: CTC+, Evaluation Type: Evaluation A (Pre-1980)”, the mutagenic call was “active; positive”. In addition, the call under setting [4] was “active; positive”.
Turning to `CCN(CC)c1ccc2c(-c3ccc(S(=O)(=O)O)cc3S(=O)(=O)[O-])c3ccc(=[N+](CC)CC)cc-3oc2c1`, the mutagenic call is, setting by setting: under setting [10], “no conclusion”; (Species/Cell Type: Bacillus subtilis (H17 vs M45T), Assay Type: Rec-assay, spot test, DNA effects (bacterial DNA repair), Assay Code: REXT, Evaluation Type: Evaluation A (Pre-1980)) “no conclusion”.
Regarding `CC1CCCCC1NC(=O)Nc1ccccc1` (stereo unspecified), the mutagenic call reads like this: under setting [10], “no conclusion”; (Species/Cell Type: Drosophila melanogaster, Assay Type: Sex-linked recessive lethal gene mutation, Assay Code: SRL-, Evaluation Type: Evaluation A (Pre-1980)) “inactive; negative”; (Species/Cell Type: Escherichia coli WP2 UVRA, Assay Type: Tryptophan reverse gene mutation, Assay Code: WPU-*, Activation: With metabolic activation, Evaluation Type: Evaluation A (Pre-1980)) “inactive; negative”; (Species/Cell Type: Escherichia coli polA (W3119 vs P3478), Assay Type: Rec-assay, DNA effects (bacterial DNA repair), Assay Code: RE1T, Evaluation Type: Evaluation A (Pre-1980)) “no conclusion”; under setting [6], “inactive; negative”; (Species/Cell Type: Saccharomyces cerevisiae, Assay Type: Mitotic recombination or gene conversion, Assay Code: YEH-, Evaluation Type: Evaluation A (Pre-1980)) “inactive; negative”. Also, where the note is “Species/Cell Type: Salmonella typhimurium (one or more of the five standard strains: TA98, TA100, TA1535, TA1537, and TA1538), Assay Type: Histidine reverse gene mutation, Ames assay, Assay Code: SAL-, Evaluation Type: Evaluation A (Pre-1980)”, the mutagenic call is “inactive; negative”.

Source of the values: PubChem BioAssay AID1259408 (Genetic Toxicology Data Bank (GENE-TOX), 2018).
